Where “and” joins values, the source holds several entries; their conditions need not be identical. Identical values can stand only once.
Experiments:
[1] = tested on: E. faecium PolC^F1276L (exonuclease-inactivated); test: Real-time DNA primer extension assay; format: biochemical, Enterococcus faecium; conditions: versus wild-type PolC
Description: The genes for PolC (locus_tag: MIBBHLJO_01574) and DnaE (locus_tag: MIBBHLJO_00911) from E. faecium ATCC 700221 were codon-optimized for expression in E. coli and synthesized in vector pET28b by Twist Bioscience (San Francisco, CA). Expression constructs for variant PolC proteins were created with QuikChange Site-Directed Mutagenesis (Agilent) with oligonucleotides listed in Supplementary Table 3. F1276L, F1276S, and A1281T were introduced to assess the effect of these mutations on inhibition by ACX compounds. Mutations D972A and D974A were introduced to inactivate the polymerase activity and mutations D431A and E433A were introduced to inactivate the exonuclease activity (Fig. 1d, Supplementary Fig. 1).
(§1) Polymerase activity was monitored in real-time[31],[32] with a 42-nt long 5’ carboxyfluorescein-labelled DNA oligonucleotide template strand (DNASP8_42) annealed to a 30-nt primer oligonucleotide (oMU014). Polymerase activity in this assay is monitored by measuring fluorescence quenching of the labelled DNA template as a result of primer extension by PolC (for details see Supplementary Fig. 1b, c). Both primers were HPLC purified. Primer extension assays were performed in Reaction Buffer (see Gel-based polymerase and exonuclease assays) supplemented with 0.5 mg/mL BSA, 0.05% Tween20 and 25 uM of each dNTP (SRB) in 384-well Black Round Bottom plates (Corning 4514). The polymerase was diluted in the SRB and incubated for at least 5 min in the presence of inhibitor or solvent, with a final solvent concentration of 1%. The reaction was initiated by the addition of an equal volume of DNA substrate in SRB as described below. Fluorescence emission data was collected with a BMG Labtech PHERAstar FSX reader for 30 min at room temperature.
(§2) Compounds were dispensed with an Echo acoustic liquid handler (Beckman Coulter). All compounds were dissolved to 1 mM and 10 mM stocks in 100% DMSO and transferred to Echo LDV or PP source plates (Labcyte, Inc., CA), then dispensed to 384-well plates with a Labcyte Echo550 or Echo650 acoustic dispenser at volumes of 2.5 to 100 nL per well. […] A Mantis microfluidic liquid dispenser (Formulatrix) was used to dispense 5 µL polymerase and 5 µL substrate DNA (individually diluted in SRB) per well. […] The final concentration of DNA was 70 nM.
(§3) Data were analysed and standard error of the means (SEM) determined in Prism 8.4.2 and 10.2.3 (GraphPad). Raw time-course polymerase activity was plotted against time, with SEM of triplicates determined. The rate of activity (represented by signal quenching) was determined during the first 8 min (linear stage) by calculating the slope of fluorescence intensity change (converted to a positive value) over time (in seconds). The slopes were then normalized to percentage activity (%); per ‘replicate range’, 100% activity was defined as polymerase activity in the absence of inhibitor (polymerase control), and 0% activity was determined in the absence of polymerase (DNA signal; negative control). The SEM was determined between ‘replicate ranges’. The IC50 was determined using the dose-response (inhibition) nonlinear regression ‘[Inhibitor] vs. response (three parameters)’ without constraints.

[2] = molecular target: exonuclease-inactivated E. faecium PolC (Exo^null, PolC^D431A+E433A) (Enterococcus faecium, UniProt A0A9X4B319, D429A/E431A); test: Real-time DNA primer extension assay; format: biochemical; conditions: for IC50: n = 3, ± SEM
Protocol: as §1, §2, §3

[3] = Fig. 1e source data, inhibitor 2.5 uM, replicates 1-3
[4] = Fig. 1e source data, inhibitor 4 uM, replicates 1-3
[5] = Fig. 1e source data, inhibitor 5.75 uM, replicates 1-3
[6] = Fig. 1e source data, inhibitor 8.75 uM, replicates 1-3
[7] = Fig. 1e source data, inhibitor 12.5 uM, replicates 1-3
[8] = Fig. 1e source data, inhibitor 20 uM, replicates 1-3
[9] = Fig. 1e source data, inhibitor 30 uM, replicates 1-3
[10] = Fig. 1e source data, inhibitor 45 uM, replicates 1-3
[11] = Fig. 1e source data, inhibitor 67.5 uM, replicates 1-3
[12] = Fig. 1e source data, inhibitor 100 uM, replicates 1-3
[13] = Fig. 4b source data, PolC (Exonull), inhibitor 1 uM
[14] = Fig. 4b source data, PolC (Exonull), inhibitor 1.75 uM
[15] = Fig. 4b source data, PolC (Exonull), inhibitor 2.5 uM
[16] = Fig. 4b source data, PolC (Exonull), inhibitor 4 uM
[17] = Fig. 4b source data, PolC (Exonull), inhibitor 5.75 uM
[18] = Fig. 4b source data, PolC (Exonull), inhibitor 8.8 uM
[19] = Fig. 4b source data, PolC (Exonull), inhibitor 20 uM
[20] = IC50, Fig. 1e, inhibitor 2.5-100 μM
[21] = IC50 PolC, Fig. 4b, wild-type PolC (exonuclease-inactivated), inhibitor up to 225 μM

O=c1[nH]c(NCc2ccc3c(c2)OC(F)(F)O3)nc2c(F)nn(CCO)c12 [ACX-801, 5-(((2,2-difluorobenzo[d][1,3]dioxol-5-yl)methyl)amino)-3-fluoro-1-(2-hydroxyethyl)-1,6-dihydro-7H-pyrazolo[4,3-d]pyrimidin-7-one]
increase of IC50 by the F1276L mutation [1]: > 19 fold | rate of activity (slope of fluorescence intensity change over time) [2, 3]: 16.9 and 13.9 and 11.9 | rate of activity (slope of fluorescence intensity change over time) [2, 4]: 8.8 and 10.0 | rate of activity (slope of fluorescence intensity change over time) [2, 5]: 8.5 and 6.8 and 7.4 | rate of activity (slope of fluorescence intensity change over time) [2, 6]: 6.9 and 3.4 and 4.8 | rate of activity (slope of fluorescence intensity change over time) [2, 7]: 9.5 and 6.4 and 6.3 | rate of activity (slope of fluorescence intensity change over time) [2, 8]: 3.9 and 4.0 and 3.8 | rate of activity (slope of fluorescence intensity change over time) [2, 9]: 1.2 (2×) and 2.5 | rate of activity (slope of fluorescence intensity change over time) [2, 10]: 0.4 and -0.11 and -1.5 | rate of activity (slope of fluorescence intensity change over time) [2, 11]: -0.534 and -0.6 and -2.3 | rate of activity (slope of fluorescence intensity change over time) [2, 12]: -1.1 and -0.9 and -1.0 | rate of activity (slope of fluorescence intensity change over time) [2, 13]: 39.9 and 41.9 | rate of activity (slope of fluorescence intensity change over time) [2, 14]: 37.2 and 42.3 and 40.2 | rate of activity (slope of fluorescence intensity change over time) [2, 15]: 36.3 and 36.1 | rate of activity (slope of fluorescence intensity change over time) [2, 16]: 30.8 and 32.5 and 32.0 | rate of activity (slope of fluorescence intensity change over time) [2, 17]: 23.4 and 22.7 and 23.0 | rate of activity (slope of fluorescence intensity change over time) [2, 18]: 23.6 and 23.3 and 21.3 | rate of activity (slope of fluorescence intensity change over time) [2, 19]: 11.8 and 10.7 and 11.9 | rate of activity (slope of fluorescence intensity change over time) ([2]; Fig. 4b source data, PolC (Exonull), inhibitor 30 uM): 6.7 and 7.0 and 4.9 | IC50 [2, 20]: 5.8 µM | IC50 [2, 21]: 11.7 ± 1.1 µM

O=c1[nH]c(NCc2ccc(Cl)c(Cl)c2)nc2ncn(CCN3CCOCC3)c12 [IBZ, N^2-(3,4-dichlorobenzyl)-7-(2-[1-morpholinyl]ethyl)guanine]
increase of IC50 by the F1276L mutation [1]: > 48 fold | rate of activity (slope of fluorescence intensity change over time) [2, 3]: 31.9 and 18.7 and 16.2 | rate of activity (slope of fluorescence intensity change over time) [2, 4]: 28.6 and 14.0 | rate of activity (slope of fluorescence intensity change over time) [2, 5]: 24.9 and 15.1 and 11.5 | rate of activity (slope of fluorescence intensity change over time) [2, 6]: 19.6 and 9.9 and 9.1 | rate of activity (slope of fluorescence intensity change over time) [2, 7]: 18.4 and 12.8 and 8.3 | rate of activity (slope of fluorescence intensity change over time) [2, 8]: 8.2 and 4.7 | rate of activity (slope of fluorescence intensity change over time) [2, 9]: 9.1 and 5.5 and 3.7 | rate of activity (slope of fluorescence intensity change over time) [2, 10]: 6.8 and 2.9 and 1.6 | rate of activity (slope of fluorescence intensity change over time) [2, 11]: 4.7 and 1.7 and -0.348 | rate of activity (slope of fluorescence intensity change over time) [2, 12]: -0.9 and -0.439 and 1.4 | rate of activity (slope of fluorescence intensity change over time) [2, 13]: 34.5 and 33.9 and 33.6 | rate of activity (slope of fluorescence intensity change over time) [2, 14]: 31.8 and 30.8 | rate of activity (slope of fluorescence intensity change over time) [2, 15]: 27.4 and 24.3 | rate of activity (slope of fluorescence intensity change over time) [2, 16]: 19.3 and 20.4 | rate of activity (slope of fluorescence intensity change over time) [2, 17]: 12.7 and 13.8 | rate of activity (slope of fluorescence intensity change over time) [2, 18]: 8.9 and 8.1 and 9.9 | rate of activity (slope of fluorescence intensity change over time) [2, 19]: 4.0 and 3.7 and 2.8 | IC50 [2, 20]: 12.3 µM | IC50 [2, 21]: 4.7 ± 0.3 µM

— publication PMC12592400, “A unique inhibitor conformation selectively targets the DNA polymerase PolC of Gram-positive priority pathogens” (Nature Communications, 2025)
